Data as given in the CheMixHub ionic liquid set.
Where “and” joins values, the source holds several entries; their conditions need not be identical. Identical values can stand only once. ± gives the uncertainty stated by the source.

Test: xn = mol fraction of the nth substance listed
Conditions: 101.3 kPa

CCCC[N+]1(C)CCCCC1.F[P-](F)(F)(F)(F)F + CCCC[n+]1cccc(C)c1.F[P-](F)(F)(F)(F)F + CCCC[N+]1(C)CCCC1.F[P-](F)(F)(F)(F)F
viscosity
Conditions	298.15 K	303.15 K	308.15 K	313.15 K	318.15 K	323.15 K	328.15 K	333.15 K
x2 = 0.2, x1 = 0.32	–	–	–	–	596 ± 45 mPa·s	439 ± 28 mPa·s	329 ± 18 mPa·s	250 ± 12 mPa·s
x2 = 0.3, x1 = 0.28	–	–	964 ± 96 mPa·s	684 ± 57 mPa·s	495 ± 35 mPa·s	365 ± 22 mPa·s	274 ± 14 mPa·s	210 ± 9 mPa·s
x2 = 0.4, x1 = 0.06	–	794 ± 33 mPa·s	568 ± 22 mPa·s	413 ± 15 mPa·s	306 ± 10 mPa·s	232 ± 7 mPa·s	178 ± 5 mPa·s	139 ± 4 mPa·s
x2 = 0.4, x1 = 0.12	–	916 ± 39 mPa·s	648 ± 26 mPa·s	467 ± 17 mPa·s	344 ± 12 mPa·s	258 ± 8 mPa·s	197 ± 6 mPa·s	153 ± 4 mPa·s
x2 = 0.4, x1 = 0.18	–	964 ± 42 mPa·s	680 ± 28 mPa·s	488 ± 18 mPa·s	358 ± 12 mPa·s	268 ± 8 mPa·s	204 ± 6 mPa·s	158 ± 4 mPa·s
x2 = 0.4, x1 = 0.24	1666 ± 82 mPa·s and 1686 ± 230 mPa·s	1130 ± 52 mPa·s and 1143 ± 130 mPa·s	783 ± 33 mPa·s and 791 ± 72 mPa·s	556 ± 21 mPa·s and 561 ± 42 mPa·s	404 ± 14 mPa·s and 407 ± 26 mPa·s	300 ± 10 mPa·s and 302 ± 16 mPa·s	227 ± 7 mPa·s and 229 ± 10 mPa·s	175 ± 5 mPa·s and 176 ± 7 mPa·s
x2 = 0.4, x1 = 0.3	1857 ± 94 mPa·s	1248 ± 59 mPa·s	859 ± 37 mPa·s	606 ± 24 mPa·s	437 ± 16 mPa·s	323 ± 11 mPa·s	243 ± 7 mPa·s	186 ± 5 mPa·s
x2 = 0.4, x1 = 0.36	2084 ± 110 mPa·s	1390 ± 68 mPa·s	948 ± 42 mPa·s	664 ± 27 mPa·s	476 ± 18 mPa·s	349 ± 12 mPa·s	261 ± 8 mPa·s	199 ± 6 mPa·s
x2 = 0.4, x1 = 0.42	2332 ± 120 mPa·s	1544 ± 77 mPa·s	1045 ± 48 mPa·s	727 ± 30 mPa·s	518 ± 20 mPa·s	378 ± 13 mPa·s	281 ± 9 mPa·s	214 ± 6 mPa·s
x2 = 0.4, x1 = 0.48	2615 ± 140 mPa·s	1714 ± 87 mPa·s	1152 ± 54 mPa·s	795 ± 34 mPa·s	563 ± 22 mPa·s	408 ± 14 mPa·s	302 ± 10 mPa·s	228 ± 7 mPa·s
x2 = 0.4, x1 = 0.54	2945 ± 170 mPa·s	1917 ± 100 mPa·s	1278 ± 61 mPa·s	875 ± 38 mPa·s	615 ± 24 mPa·s	444 ± 16 mPa·s	327 ± 11 mPa·s	246 ± 8 mPa·s
x2 = 0.5, x1 = 0.2	–	–	648 ± 54 mPa·s	465 ± 32 mPa·s	340 ± 20 mPa·s	253 ± 12 mPa·s	192 ± 8 mPa·s	149 ± 5 mPa·s
x2 = 0.6, x1 = 0.16	–	–	534 ± 40 mPa·s	385 ± 24 mPa·s	284 ± 15 mPa·s	213 ± 9 mPa·s	163 ± 6 mPa·s	–
x2 = 0.7, x1 = 0.12	–	–	–	325 ± 19 mPa·s	241 ± 12 mPa·s	182 ± 7 mPa·s	140 ± 5 mPa·s	–
x2 = 0.8, x1 = 0.08	–	–	–	–	206 ± 9 mPa·s	157 ± 6 mPa·s	121 ± 4 mPa·s	–
x2 = 0.9, x1 = 0.04	–	–	–	–	–	136 ± 5 mPa·s	106 ± 3 mPa·s	–
